Read-outs that look alike come from different tables or passages of the source.
Columns and labels:
[1] = system: rat primary articular chondrocytes
Procedure: (§2) Purified chondrocytes were resuspended in DMEM glutaMAX 10% and plated in a 96X well plate for toxicity analysis and in a 6X well plate for gene expression analysis.
(§3) For toxicity analysis cells were then treated with the different compounds for 24 and 48 h. At the end of the incubation time, the medium was removed and was substituted with a mixture 10:1 of DMEM glutaMAX 10%—MTT (2 mg/ml) for 1 h at 37° C. in the cell incubator. After this incubation, the precipitated salt was dissolved with 100 μl of DMSO and the plate was read at 540 nm. The toxicity analysis were performed to decide the maximal non toxic concentration of each compound used in the gene expression assay.

[2] = biological target: Fyn (Homo sapiens (Human), UniProt P06241); assay: Z′-LYTE in vitro Fyn kinase activity assay; assay type: biochemical; details: ATP 50 μM; read-out: FYN KINASE INHIBITION IC50
Outline: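 Z′-LYTE FRET format with full-length active Fyn in 50 mM Hepes pH 7.5, 10 mM MgCl2, 1 mM EGTA, 0.01% Brij-35, 1% DMSO final; 60 minutes at 25° C. Percent phosphorylation from 0% and 100% phosphorylation controls; IC50 by non-linear curve fitting of percent inhibition.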

[3] = biological target: VEGFR2 (Homo sapiens (Human), UniProt P35968); assay: In vitro VEGFR2 kinase activity assay (Eurofins Cerep); assay type: biochemical; details: read-out: VEGFR2 KINASE INHIBITION IC50
Outline: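 Contract biochemical kinase assay on human VEGFR2 with inhibitors at 10^−8 to 10^−5 M final (some re-tested from 10^−9 M). Activity expressed as percent of no-compound control; IC50 by non-linear regression of mean replicate inhibition curves.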

[4] = system: MMP13; assay: Gene expression in rat articular chondrocytes under IL-1β stimulation, MMP13; assay type: cell-based; parameters: key to MMP13 gene expression, no effect: ne: no effect; details: 24 h
Outline: (§1)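 Primary rat chondrocytes were synchronized in DMEM GlutaMAX I 0.4% 10 days after plating, then co-treated with test compounds (top concentration set by toxicity) and cytokine at 2 ng/ml. TaqMan RT-qPCR relative to 18S was read at 6 h for IL-1β and ADAMTS-5 and at 24 h for MMP3 and MMP13.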

[5] = system: IL-1β; assay: Gene expression in rat articular chondrocytes under IL-1β stimulation, IL-1β; assay type: cell-based; details: for IL-1β gene expression, percentage of inhibitory effect at the highest non toxic concentration: 6 h; for IC50: Rattus norvegicus, Chondrocyte, 6 h incubation
Outline: as §1

[6] = system: NF-kB; assay: Gene reporter (GR) assay, NF-kB activation after TNFα in JB6 Cl 41-5a (P+) cells; assay type: cell-based, murine; details: TNFα 2 ng/ml, non toxic concentrations, read-out: Gene reporter (GR) inhibition IC50
Outline: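 TNFα (2 ng/ml, 4 h) stimulation followed 1 h compound pre-treatment in NF-kB-luciferase-transfected mouse JB6 (P+) epithelial cells. Reporter luminescence and cell viability were read together, each condition in quadruplicate.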

[7] = system: bovine nasal septum cartilage; assay: Inhibition of cartilage degradation (GAG release) induced by IL-1α in a bovine in vitro model; assay type: cell-based; parameters: key to Bovine cartilage degradation induced by IL-1α, no effect: ne: no effect
Outline: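 Cartilage punches (2 mm) from an 8-month-old male bovine nasal septum were cultured 48 h, then stimulated 48 h with IL-1α […] ± compound in DMEM + 0.1% BSA. Compound doses were set from 48 h rat chondrocyte toxicity. GAG in medium and papain-digested tissue was measured by DMB absorbance at 590 nm; degradation = medium GAG/total GAG × 100.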

[8] = system: MMP3; assay: Gene expression in rat articular chondrocytes under IL-1β stimulation, MMP3; assay type: cell-based; parameters: key to MMP3 gene expression, no effect: ne: no effect
Outline: as §1

[9] = system: IL-6; assay: Gene expression in rat articular chondrocytes under IL-1β stimulation, IL-6; assay type: cell-based; details: for IL-6 gene expression, percentage of inhibitory effect at the highest non toxic concentration: 6 h
[10] = system: COX2; assay: Gene expression in rat articular chondrocytes under IL-1β stimulation, COX2; assay type: cell-based; parameters: key to COX2 gene expression, no effect: ne: no effect; details: 24 h
[11] = system: ADAMTS-5; assay: Gene expression in rat articular chondrocytes under IL-1β stimulation, ADAMTS-5; assay type: cell-based; details: for ADAMTS-5 gene expression, percentage of inhibitory effect at the highest non toxic concentration: 6 h; for IC50: Rattus norvegicus, Chondrocyte, 6 h incubation
Outline: as §1

[12] = system: rat primary articular chondrocytes; assay: Toxicity analysis (MTT) in rat primary chondrocytes; details: for First toxic concentration at 24 h: rat primary chondrocytes
Procedure: as §2, §3

VEGFR2, sequence (P35968 20-1356): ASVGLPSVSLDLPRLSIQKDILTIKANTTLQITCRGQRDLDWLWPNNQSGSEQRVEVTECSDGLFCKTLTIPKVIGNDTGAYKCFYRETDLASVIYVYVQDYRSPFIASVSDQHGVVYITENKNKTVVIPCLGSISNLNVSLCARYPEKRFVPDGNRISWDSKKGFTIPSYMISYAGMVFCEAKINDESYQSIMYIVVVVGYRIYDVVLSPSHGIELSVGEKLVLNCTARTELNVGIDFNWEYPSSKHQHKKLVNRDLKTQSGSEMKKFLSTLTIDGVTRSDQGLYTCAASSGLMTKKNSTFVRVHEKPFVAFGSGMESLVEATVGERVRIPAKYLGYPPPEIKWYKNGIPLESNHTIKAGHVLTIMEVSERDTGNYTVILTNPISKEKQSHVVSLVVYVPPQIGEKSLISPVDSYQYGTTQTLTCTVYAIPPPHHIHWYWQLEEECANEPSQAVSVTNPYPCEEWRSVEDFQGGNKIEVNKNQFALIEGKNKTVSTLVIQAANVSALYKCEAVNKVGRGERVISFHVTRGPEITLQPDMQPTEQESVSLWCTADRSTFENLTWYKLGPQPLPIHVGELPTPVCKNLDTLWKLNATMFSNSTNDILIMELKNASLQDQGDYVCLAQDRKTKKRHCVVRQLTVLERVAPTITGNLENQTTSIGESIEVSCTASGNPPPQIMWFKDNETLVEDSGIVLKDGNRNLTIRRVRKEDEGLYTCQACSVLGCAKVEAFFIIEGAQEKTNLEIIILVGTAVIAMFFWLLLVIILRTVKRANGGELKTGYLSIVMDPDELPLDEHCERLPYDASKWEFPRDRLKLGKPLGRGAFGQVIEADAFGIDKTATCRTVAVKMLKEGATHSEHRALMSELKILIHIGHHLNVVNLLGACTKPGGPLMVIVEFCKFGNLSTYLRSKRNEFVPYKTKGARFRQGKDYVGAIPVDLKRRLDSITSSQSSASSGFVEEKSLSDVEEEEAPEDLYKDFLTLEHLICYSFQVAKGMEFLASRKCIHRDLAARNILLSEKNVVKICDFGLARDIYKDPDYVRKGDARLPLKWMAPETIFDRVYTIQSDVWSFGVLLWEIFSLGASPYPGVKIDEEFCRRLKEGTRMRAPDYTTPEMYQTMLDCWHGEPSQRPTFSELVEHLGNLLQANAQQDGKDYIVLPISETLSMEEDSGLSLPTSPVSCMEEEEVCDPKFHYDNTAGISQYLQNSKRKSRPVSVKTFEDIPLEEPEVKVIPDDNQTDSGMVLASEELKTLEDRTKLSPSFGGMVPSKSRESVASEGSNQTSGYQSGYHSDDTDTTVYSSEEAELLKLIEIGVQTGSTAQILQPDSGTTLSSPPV
Fyn, sequence (P06241 whole entry): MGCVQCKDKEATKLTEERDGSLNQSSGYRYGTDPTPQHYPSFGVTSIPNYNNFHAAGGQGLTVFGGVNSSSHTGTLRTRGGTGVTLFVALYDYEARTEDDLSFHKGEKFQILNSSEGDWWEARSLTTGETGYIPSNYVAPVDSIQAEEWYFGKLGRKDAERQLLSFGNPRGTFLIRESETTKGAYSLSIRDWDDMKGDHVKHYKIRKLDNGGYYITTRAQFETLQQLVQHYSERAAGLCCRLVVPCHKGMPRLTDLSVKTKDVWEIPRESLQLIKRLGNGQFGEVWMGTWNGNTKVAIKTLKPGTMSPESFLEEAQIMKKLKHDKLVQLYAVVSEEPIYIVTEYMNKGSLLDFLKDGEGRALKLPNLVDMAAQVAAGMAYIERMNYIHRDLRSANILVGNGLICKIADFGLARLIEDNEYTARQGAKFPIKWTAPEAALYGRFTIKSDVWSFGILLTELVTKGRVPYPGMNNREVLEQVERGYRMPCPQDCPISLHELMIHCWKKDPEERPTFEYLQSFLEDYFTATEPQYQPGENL

IC50 [2] [nM] | IC50 [3] [nM] | IC50 [5] [nM] | Compound | MMP13 gene expression, percentage of inhibitory effect at the highest non toxic concentration ([4]; 10 μM) | IL-1β gene expression, percentage of inhibitory effect at the highest non toxic concentration ([5]; 10 μM) | IC50 ([6]; Mus musculus, JB6 Cl 41-5a) [nM] | MMP3 gene expression, percentage of inhibitory effect at the highest non toxic concentration ([8]; 10 μM, 24 h) | IL-6 gene expression, percentage of inhibitory effect at the highest non toxic concentration ([9]; 10 μM) | First toxic concentration at 48 h in rat primary chondrocytes [12] [µM] | First toxic concentration at 24 h [12] [µM] | COX2 gene expression, percentage of inhibitory effect at the highest non toxic concentration ([10]; 10 μM) | IC50 [11] [nM] | also measured
88 | < 10 | – | Cc1ccc(NC(=O)c2cccc(S(=O)(=O)C(C)C)c2)cc1CCc1cc(Nc2ncccc2C)[nH]n1 [Compound 35, 3-(isopropylsulfonyl)-N-(4-methyl-3-(2-(5-((3-methylpyridin-2-yl)amino)-1H-pyrazol-3-yl)ethyl)phenyl) benzamide] | 10 μM 88% | 10 μM 74% | 1310 | 10 μM 44% | 10 μM 90% | >10 | >10 | 10 μM 90% | 3000 | IC50 ([7]; Bos taurus, head says nM, cells print μM, 48 h stimulation, read-out: Inhibitory effect on bovine cartilage degradation induced by IL-1α, IC50): 1500 nM
24 | 35 | 1600 | Cc1nc(C#N)cc(Nc2cc(CCc3cc(NC(=O)c4cccc(S(=O)(=O)N(C)C)c4)ccc3C)n[nH]2)n1 [Compound 37, N-(3-(2-(5-((6-cyano-2-methylpyrimidin-4-yl)amino)-1H-pyrazol-3-yl)ethyl)-4-methylphenyl)-3-(N,N-dimethylsulfamoyl)benzamide] | 10 μM 95% | – | 2260 | 10 μM 59% | 10 μM 97% | >10 | >10 | 10 μM 97% | 4000 | inhibition at 10 µM ([7]; Bos taurus, 10 μM, read-out: Bovine cartilage degradation induced by IL-1α, % inhibitory effect at max concentration): 99%
99 | < 10 | – | Cc1ncc(Nc2cc(CCc3cc(NC(=O)c4cccc(C(F)(F)F)c4)ccc3F)n[nH]2)cn1 [Compound 40, N-(4-fluoro-3-(2-(5-((2-methylpyrimidin-5-yl)amino)-1H-pyrazol-3-yl)ethyl)phenyl)-3-(trifluoromethyl)benzamide] | 10 μM 100% | 10 μM 100% | 515 | – | 10 μM 100% | 10 | >10 | 10 μM 100% | 2300 | inhibition at 3 µM ([7]; Bos taurus, 3 μM, read-out: Bovine cartilage degradation induced by IL-1α, % inhibitory effect at max concentration): 49%; IC50 ([8]; Rattus norvegicus, Chondrocyte, 24 h incubation): 500 nM
27 | 10 | 600 | Cc1ccc(NC(=O)c2cccc(S(C)(=O)=O)c2)cc1CCc1cnc(Nc2cnccn2)s1 [Compound 48, N-(4-methyl-3-(2-(2-(pyrazin-2-ylamino)thiazol-5-yl)ethyl)phenyl)-3-(methylsulfonyl)benzamide] | – | – | 275 | – | – | 3 | 3 | – | – | MMP13 gene expression, no effect [4]: ne; Bovine cartilage degradation induced by IL-1α, no effect [7]: ne; MMP3 gene expression, no effect ([8]; 24 h): ne; IC50 ([9]; Rattus norvegicus, Chondrocyte, 6 h incubation): 200 nM; COX2 gene expression, no effect [10]: ne; ADAMTS-5 gene expression, percentage of inhibitory effect at the highest non toxic concentration ([11]; 1 μM): 1 μM 70%

Compound | IC50 [2] [nM] | IC50 [3] [nM] | IC50 [5] [nM] | MMP13 gene expression, percentage of inhibitory effect at the highest non toxic concentration ([4]; 10 μM) | IL-1β gene expression, percentage of inhibitory effect at the highest non toxic concentration ([5]; 10 μM) | IC50 ([6]; Mus musculus, JB6 Cl 41-5a) [nM] | MMP3 gene expression, percentage of inhibitory effect at the highest non toxic concentration ([8]; 10 μM, 24 h) | IL-6 gene expression, percentage of inhibitory effect at the highest non toxic concentration ([9]; 10 μM) | First toxic concentration at 48 h in rat primary chondrocytes [12] [µM] | First toxic concentration at 24 h [12] [µM] | COX2 gene expression, percentage of inhibitory effect at the highest non toxic concentration ([10]; 10 μM) | IC50 [11] [nM] | also measured
CC(=O)N1Cc2cnc(Nc3cc(CCc4cc(NC(=O)c5cccc(C(F)(F)F)c5)ccc4C)n[nH]3)cc2C1 [Compound 34, N-(3-(2-(5-((2-acetyl-2,3-dihydro-1H-pyrrolo[3,4-c]pyridin-6-yl)amino)-1H-pyrazol-3-yl)ethyl)-4-methylphenyl)-3-(trifluoromethyl) benzamide] | 6 | < 10 | – | – | – | – | – | – | – | – | – | – | First toxic concentration at 24 h [1]: 10 µM; First toxic concentration at 48 h in rat primary chondrocytes [1]: 3 µM; MMP13 gene expression, percentage of inhibitory effect at the highest non toxic concentration ([4]; 3 μM): 3 μM 82%; IL-1β gene expression, percentage of inhibitory effect at the highest non toxic concentration ([5]; 3 μM): 3 μM 99%; IC50 [6]: 958 nM; Bovine cartilage degradation induced by IL-1α, % inhibitory effect at max concentration ([7]; 1 μM): 96%; Inhibitory effect on the GAG release ([7]; at max concentration): 95-100%; MMP3 gene expression, percentage of inhibitory effect at the highest non toxic concentration ([8]; 3 μM, 24 h): 3 μM 58%; IL-6 gene expression, percentage of inhibitory effect at the highest non toxic concentration ([9]; 3 μM): 3 μM 100%; COX2 gene expression, percentage of inhibitory effect at the highest non toxic concentration ([10]; 3 μM): 3 μM 76%; ADAMTS-5 gene expression, percentage of inhibitory effect at the highest non toxic concentration ([11]; 3 μM): 3 μM 97%

— patent US12509446B2, “FYN and VEGFR2 kinase inhibitors” (ROTTAPHARM BIOTECH S.R.L., priority 2019, dated 2025)
